# From US20060276464A1, “Diarylsulfone sulfonamides and use thereof” (Wyeth, priority 2005, published 2006)
# Values joined by “and” are separate entries in the source; they are usually repeats but may differ in a detail not shown here. Equal values may be shown once. Read-outs that look alike come from different tables or passages of the source.
# Legend:
# [1] = biological target: T1, SFRP-1 (Homo sapiens, UniProt Q8N474); experiment: Cell-based assay for in vitro measurement of SFRP-1/SARP2 antagonist activity (U2OS cells co-transfected with 16x TCF-tk-Luciferase reporter, Wnt and hSFRP-1); settings: for fold induction at 15 µM / fold induction at 10 µM: U2OS; for fold induction at 15 µM: single dose, luciferase reporter; for fold induction at 10 µM: read-out: Fold Induction with SFRP-1, U2OS cells, single dose 10 μM, luciferase reporter, fold induction over SFRP-1 control;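 for all read-outs here: U2OS cells co-transfected with a TCF-tk luciferase reporter, a Wnt vector, hSFRP-1 or empty vector and CMV-βgal, luciferase luminescence read in cell lysates alongside βgal activity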
# T1 sequence (Q8N474 32-314): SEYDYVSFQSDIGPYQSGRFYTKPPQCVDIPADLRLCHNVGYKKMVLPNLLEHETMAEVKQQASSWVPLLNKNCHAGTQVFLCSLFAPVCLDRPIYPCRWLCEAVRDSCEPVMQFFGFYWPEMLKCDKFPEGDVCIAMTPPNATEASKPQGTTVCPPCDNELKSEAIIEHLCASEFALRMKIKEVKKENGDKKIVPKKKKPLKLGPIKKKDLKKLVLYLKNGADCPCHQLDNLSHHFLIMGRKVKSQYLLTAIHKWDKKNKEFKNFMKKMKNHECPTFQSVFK
# [2] = biological target: T1, SFRP-1; experiment: Fluorescence polarization binding assay (competitive displacement of a probe compound from SFRP-1); settings: fluorescence anisotropy, 45 nM SFRP-1, 20 nM probe;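 note: test compound competes with a fluorescent probe held by SFRP-1, seen as a drop in probe anisotropy after incubation in darkness, with anisotropy as function of rising compound dose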
# [3] = read-out: Fold Induction with SFRP-1, Conc 15 μM, fold induction over SFRP-1 control, cells with SFRP-1
# [4] = read-out: Fold Induction without SFRP-1, Conc 15 μM, cells without SFRP-1 (specificity control)
SMILES,"fold induction at 15 µM [1, 3]","fold induction at 15 µM [1, 4]",IC50 [2],EC50 [1],fold induction at 10 µM [1]
"Cc1cc(N(C)C)ccc1S(=O)(=O)c1ccc(C(C)C)c(S(=O)(=O)NCCc2ccccn2)c1 [Example 600, 5-{[4-(dimethylamino)-2-methylphenyl]sulfonyl}-2-isopropyl-N-(2-pyridin-2-ylethyl)benzenesulfonamide]",3,1.1,2 µM,–,–
"Cc1cccc(S(=O)(=O)c2ccc(Cl)c(S(=O)(=O)NC3CCOCC3)c2)c1 [Example 604, 2-chloro-5-[(3-methylphenyl)sulfonyl]-N-(tetrahydro-2H-pyran-4-yl)benzenesulfonamide]",2.2,1.1,7 µM,–,–
"CNc1ccc(S(=O)(=O)c2ccc(C(C)C)c(S(=O)(=O)NCCc3ccccn3)c2)cc1Cl [Example 605, 5-{[3-chloro-4-(methylamino)phenyl]sulfonyl}-2-isopropyl-N-(2-pyridin-2-ylethyl)benzenesulfonamide]",3.2,1.1,0.6 µM,–,–
"COc1cccc(S(=O)(=O)c2ccc(Cl)c(S(=O)(=O)NC3CCOCC3)c2)c1 [Example 606, 2-chloro-5-[(3-methoxyphenyl)sulfonyl]-N-(tetrahydro-2H-pyran-4-yl)benzenesulfonamide]",1.9,1,8 µM,–,–
"Cn1ccc2cc(S(=O)(=O)c3ccc(Cl)c(S(=O)(=O)NC4CCOCC4)c3)ccc21 [Example 607, 2-chloro-5-[(1-methyl-1H-indol-5-yl)sulfonyl]-N-(tetrahydro-2H-pyran-4-yl)benzenesulfonamide]",2.3,1.1,2 µM,–,–
"CC(C)c1ccc(S(=O)(=O)c2ccc(N3C[C@@H](C)N[C@@H](C)C3)cc2)cc1S(=O)(=O)NC1CCOCC1 [Example 626, 5-({4-cis-3,5-dimethylpiperazin-1-ylphenyl}sulfonyl)-2-isopropyl-N-(tetrahydro-2H-pyran-4-yl)benzenesulfonamide]",2.9,1.1,4 µM,–,–
"O=S(=O)(NCCc1cccnc1)c1cc(S(=O)(=O)c2ccccc2)ccc1Cl [Example 640, 2-chloro-5-(phenylsulfonyl)-N-(2-pyridin-3-ylethyl)benzenesulfonamide]",3.5,1.2,1.2 µM,–,–
"N#CCCNS(=O)(=O)c1cc(S(=O)(=O)c2ccccc2)ccc1Cl [Example 643, 2-chloro-N-(2-cyanoethyl)-5-(phenylsulfonyl)benzenesulfonamide]",3.2,1,2.4 µM,–,–
"O=C(N1CCOCC1)N1CCC(NS(=O)(=O)c2cc(S(=O)(=O)c3ccccc3)ccc2Cl)CC1 [Example 650, 2-chloro-N-[1-(morpholin-4-ylcarbonyl)piperidin-4-yl]-5-(phenylsulfonyl)benzenesulfonamide]",3.4,1.1,10 µM,–,–
"N#CN1CCC(NS(=O)(=O)c2cc(S(=O)(=O)c3ccccc3)ccc2Cl)CC1 [Example 651, 2-chloro-N-(1-cyanopiperidin-4-yl)-5-(phenylsulfonyl)benzenesulfonamide]",2.9,0.9,0.4 µM,–,–
"CC(C)c1ccc(S(=O)(=O)c2ccc(F)cc2)cc1S(=O)(=O)NCCc1ccc[n+]([O-])c1 [Example 652, 5-[(4-fluorophenyl)sulfonyl]-2-isopropyl-N-[2-(1-oxidopyridin-3-yl)ethyl]benzenesulfonamide]",3.8,1,0.8 µM and 0.7 µM,–,–
"O=C(c1ccc(F)cc1)N1CCC(NS(=O)(=O)c2cc(S(=O)(=O)c3ccccc3)ccc2Cl)CC1 [Example 656, 2-chloro-N-[1-(4-fluorobenzoyl)piperidin-4-yl]-5-(phenylsulfonyl)benzenesulfonamide]",–,–,2.8 µM,11.7 µM,2.2
"O=S(=O)(NCCc1cccnc1)c1cc(S(=O)(=O)c2ccccc2)ccc1OC(F)(F)F [Example 660, 5-(phenylsulfonyl)-N-(2-pyridin-3-ylethyl)-2-(trifluoromethoxy)benzenesulfonamide]",–,–,2.4 µM,3.72 µM,4.9
"O=S(=O)(NC1CCOCC1)c1cc(S(=O)(=O)c2ccccc2)ccc1OC(F)(F)F [Example 662, 5-(phenylsulfonyl)-N-(tetrahydro-2H-pyran-4-yl)-2-(trifluoromethoxy)benzenesulfonamide]",–,–,4 µM,17.6 µM,3.3
"CC(C)c1ccc(S(=O)(=O)c2ccccc2)cc1S(=O)(=O)NC1CCOCC1 [Example 670, 2-isopropyl-5-(phenylsulfonyl)-N-(tetrahydro-2H-pyran-4-yl)benzenesulfonamide]",–,–,0.8 µM,2.83 µM,3.2
"CC(C)c1ccc(S(=O)(=O)c2ccccc2)cc1S(=O)(=O)NCCc1ccccn1 [Example 671, 2-isopropyl-5-(phenylsulfonyl)-N-(2-pyridin-2-ylethyl)benzenesulfonamide]",–,–,0.4 µM,1.58 µM,3.6
"CC(C)c1ccc(S(=O)(=O)c2ccccc2)cc1S(=O)(=O)NCCc1cccnc1 [Example 672, 2-isopropyl-5-(phenylsulfonyl)-N-(2-pyridin-3-ylethyl)benzenesulfonamide]",–,–,0.3 µM,3.12 µM,4.2

# Continued, values first:
"fold induction at 15 µM [1, 3]","fold induction at 15 µM [1, 4]",IC50 [2],EC50 [1],fold induction at 10 µM [1],SMILES
4.2,1.4,0.6 µM,–,–,"CNc1ccc(S(=O)(=O)c2ccc(C(C)C)c(S(=O)(=O)NCCc3ccccn3)c2)c(C)c1 [Example 599, 2-isopropyl-5-{[2-methyl-4-(methylamino)phenyl]sulfonyl}-N-(2-pyridin-2-ylethyl)benzenesulfonamide]"
2.4,0.9,8 µM,–,–,"Cc1ccc(S(=O)(=O)c2ccc(F)cc2)cc1S(=O)(=O)NC1CCN(C(=O)N2CCOCC2)CC1 [Example 603, 5-[(4-fluorophenyl)sulfonyl]-2-methyl-N-[1-(morpholin-4-ylcarbonyl)piperidin-4-yl]benzenesulfonamide]"
2.2,1.1,3 µM,–,–,"CC(C)c1ccc(S(=O)(=O)c2ccc(N3CCN(C(=O)OC(C)(C)C)CC3)cc2)cc1S(=O)(=O)NC1CCOCC1 [Example 625, tert-butyl 4-[4-({4-isopropyl-3-[(tetrahydro-2H-pyran-4-ylamino)sulfonyl]phenyl}sulfonyl)phenyl]piperazine-1-carboxylate]"
3.2,1.1,3 µM,–,–,"CC(C)c1ccc(S(=O)(=O)c2ccc(N3CCNCC3)cc2)cc1S(=O)(=O)NC1CCOCC1 [Example 628, 2-isopropyl-5-[(4-piperazin-1-ylphenyl)sulfonyl]-N-(tetrahydro-2H-pyran-4-yl)benzenesulfonamide]"
3,1,1.1 µM,–,–,"O=S(=O)(NCCc1ccncc1)c1cc(S(=O)(=O)c2ccccc2)ccc1Cl [Example 641, 2-chloro-5-(phenylsulfonyl)-N-(2-pyridin-4-ylethyl)benzenesulfonamide]"
3.9,1.1,1.4 µM,–,–,"O=C(N1CCC(NS(=O)(=O)c2cc(S(=O)(=O)c3ccccc3)ccc2Cl)CC1)C(F)(F)F [Example 647, 2-chloro-5-(phenylsulfonyl)-N-[1-(trifluoroacetyl)piperidin-4-yl]benzenesulfonamide]"
2.9,1.1,5 µM,–,–,"CC(C)(C)C(=O)N1CCC(NS(=O)(=O)c2cc(S(=O)(=O)c3ccccc3)ccc2Cl)CC1 [Example 648, 2-chloro-N-[1-(2,2-dimethylpropanoyl)piperidin-4-yl]-5-(phenylsulfonyl)benzenesulfonamide]"
3,1.1,1.6 µM,–,–,"CC(C)(C)NC(=O)N1CCC(NS(=O)(=O)c2cc(S(=O)(=O)c3ccccc3)ccc2Cl)CC1 [Example 649, N-(tert-butyl)-4-({[2-chloro-5-(phenylsulfonyl)phenyl]sulfonyl}amino)piperidine-1-carboxamide]"
–,–,2.4 µM,9.03 µM,2.4,"N#Cc1ccc(C(=O)N2CCC(NS(=O)(=O)c3cc(S(=O)(=O)c4ccccc4)ccc3Cl)CC2)cc1 [Example 657, 2-chloro-N-[1-(4-cyanobenzoyl)piperidin-4-yl]-5-(phenylsulfonyl)benzenesulfonamide]"
–,–,0.8 µM,6.35 µM,2.6,"O=C(c1ccc(C(F)(F)F)cc1)N1CCC(NS(=O)(=O)c2cc(S(=O)(=O)c3ccccc3)ccc2Cl)CC1 [Example 658, 2-chloro-5-(phenylsulfonyl)-N-{1-[4-(trifluoromethyl)benzoyl]piperidin-4-yl}benzenesulfonamide]"
–,–,1.7 µM,2.99 µM,3.9,"CC(C)c1ccc(S(=O)(=O)c2ccc(F)cc2)cc1S(=O)(=O)NCCC#N [Example 664, N-(2-cyanoethyl)-5-[(4-fluorophenyl)sulfonyl]-2-isopropylbenzenesulfonamide]"
